pIC50: −log10 of the molar value. Calls of active or inactive are those of the source.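 The calls were made as follows: active = IC50 of 20 µM or lower; inactive = the rest.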
tested on: HL-1 cardiomyocytes, H2O2 injury, ATP luminescence, 2 h; assay: H2O2-induced HL-1 cell death suppression – ATP luminescence, dose response (AID 602215);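 also: potency is for protection so actives raise ATP signal against peroxide damage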

| SMILES | IC50 | pIC50 |
| --- | --- | --- |
| COc1ccc2[nH]c(=O)c(CN(Cc3cccnc3)S(=O)(=O)c3ccccc3F)cc2c1 | > 79 µM (inactive) | – |
| O=C(Nc1ccccc1)c1nc[nH]c1C(=O)NCCNC(=O)c1[nH]cnc1C(=O)Nc1ccccc1 | > 79 µM (inactive) | – |
| CCN(CC(=O)Nc1ccc(OC)cc1)C(=O)c1cc(-c2cccs2)nn1-c1ccccc1 | > 79 µM (inactive) | – |
| COc1ccc(-c2ccc3c(c2)S(=O)(=O)c2cccc(C(=O)NC[C@@H]4CCCO4)c2C3=O)cc1OC | > 79 µM (inactive) | – |
| Cc1cc(N)n(-c2nc(-c3cccnc3)nc3ccccc23)n1 | > 79 µM (inactive) | – |
| COc1ccc(-c2cnc3c(NC=O)cc(-c4cccc(NS(C)(=O)=O)c4)cn23)cc1OC | – | 5.21 |
| COc1cc(-c2cc3nc(NCCOc4ccccc4)ccn3n2)cc(OC)c1OC | > 79 µM (inactive) | – |
| CNC(=O)c1ccc(-c2sc3nc(N4CCOCC4)c4c(c3c2N)CC(C)(C)OC4)o1 | – | 5.74 |
| COc1cc(C(=O)NCC(=O)N/N=C/c2ccc(-c3cccc([N+](=O)[O-])c3)o2)cc(OC)c1OC | – | 5.04 |
| COc1ccc(Nc2nnc(SCc3cc(=O)n4ccsc4n3)s2)cc1 | > 79 µM (inactive) | – |
| Cc1ccc(NC(=O)c2nc[nH]c2C(=O)NCCCNC(=O)c2[nH]cnc2C(=O)Nc2ccc(C)cc2)cc1 | > 79 µM (inactive) | – |
| C[C@@H]1CN([C@@H](C)CO)C(=O)c2cc(NC(=O)Nc3ccccc3)ccc2O[C@H]1CN(C)C(=O)Nc1cccc2ccccc12 | > 79 µM (inactive) | – |
| COC(=O)c1ccc(N)c(N=CC2=C(O)CC(C)(C)CC2=O)c1 | 41.4 µM (inactive) | – |
| Cc1ccccc1N(C(=O)c1snc(C(N)=O)c1N)C(C(=O)NCc1ccccc1)c1ccc(O)cc1 (centres undefined) | – | 4.80 |
| COc1ccc(-n2c(/C=C/c3ccc(O)c(OC)c3)nc3ccccc3c2=O)cc1 | – | 4.92 |
| CC1(c2ccccc2)NC(=O)N(CC(=O)Nc2cccc(/C=C/c3ccccn3)c2)C1=O (centres undefined) | – | 4.85 |
| O=CNc1cc(-c2ccc(C(=O)NC3CC3)cc2)cn2c(-c3ccccc3)cnc12 | > 79 µM (inactive) | – |
| Cc1cc(C)c(C)c(S(=O)(=O)N2CCN(C(=O)c3cc(=O)[nH]c4ccccc34)CC2)c1C | – | 4.72 |
| COCCN1Cc2cccc(C(=O)Nc3cccc(-c4nc5ccccc5[nH]4)c3)c2C1=O | > 79 µM (inactive) | – |
| COc1ccc(-c2cc(-c3nnc(COC(=O)C4CC4)o3)c3ccccc3n2)cc1OC | > 79 µM (inactive) | – |
| COc1ccc(-c2cc(-c3nnc(COC(=O)c4ccncc4)o3)c3ccccc3n2)cc1OC | > 79 µM (inactive) | – |
| COc1cc(/C=N/NC(=O)NC23CC4CC(CC(C4)C2)C3)ccc1OCC(N)=O | 48.3 µM (inactive) | – |

| SMILES | IC50 | pIC50 |
| --- | --- | --- |
| COc1cc(/C=C/c2nnc3c4ccccc4ncn23)cc(OC)c1OC | – | 4.86 |
| CC(C)OCCCNC(=O)CCC(=O)NNc1nc2ccccc2c2nc(-c3ccccc3)nn12 | > 79 µM (inactive) | – |
| O=C(Nc1ccccc1)c1nc[nH]c1C(=O)NCCCCNC(=O)c1[nH]cnc1C(=O)Nc1ccccc1 | 39.6 µM (inactive) | – |
| CCOC(=O)C1CCN(c2cc3c(cc2NC(=O)c2ccccc2)n(C)c(=O)n3C)CC1 | > 79 µM (inactive) | – |
| CC(C)c1ccccc1NC(=O)COC(=O)c1c2c(nc3ccccc13)CCN(Cc1ccccc1)C2 | 41.4 µM (inactive) | – |
| NC(=O)c1nsc(C(=O)N(c2ccccc2F)C(C(=O)NCc2ccc(F)cc2)c2ccc(O)cc2)c1N (centres undefined) | > 79 µM (inactive) | – |
| CC(C)=NNc1cnnc2ccc([N+](=O)[O-])cc12 | > 79 µM (inactive) | – |
| COCCCN(Cc1ccco1)C(=O)Cn1ncc2c([nH]c3ccccc32)c1=O | > 79 µM (inactive) | – |
| COc1ccccc1NC(=O)c1cc(-c2cc(OC)c(OC)c(OC)c2)nc2ccccc12 | – | 4.87 |
| COc1ccc(-c2cc(NC(C)=O)c3ncc(-c4cccc(C(C)=O)c4)n3c2)cc1OC | > 79 µM (inactive) | – |
| COc1cc(NC(=O)c2cc3ccccc3cc2OC)ccc1NC(=O)c1cccs1 | – | 5.37 |
| CN(C)S(=O)(=O)c1ccc2[nH]cc(/C=C/c3nc4ccccc4c(=O)n3-c3ccccc3)c2c1 | > 79 µM (inactive) | – |
| CCCNC(=O)c1ccc(N2CCC3(CC2)CC(c2ccccc2)=NO3)c(NC(=O)c2ccco2)c1 | – | 5.49 |
| Nc1c(C(=O)N/N=C/c2cccnc2)oc2nc(-c3ccccc3)cc(-c3ccco3)c12 | > 79 µM (inactive) | – |
| COc1ccc2c(c1OC)C(=O)N1c3ccccc3C(=O)N(c3ccccc3)C21 (centres undefined) | > 79 µM (inactive) | – |
| CN(C(=O)c1sc2nc(N3CCOCC3)c3c(c2c1N)CCCC3)c1ccccc1 | – | 5.06 |
| Cc1cccc(NC(=O)c2oc3ccc(S(=O)(=O)N4CCOCC4)cc3c2C)c1C | – | 5.38 |
| CCc1nc2ccc(C(=O)Nc3cc(-c4ccccc4)ccc3OC)cn2c1N(C)Cc1nccs1 | > 79 µM (inactive) | – |
| COc1ccccc1OP(=O)(Nc1cccnc1)Oc1ccccc1OC | > 79 µM (inactive) | – |
| CC(=O)c1ccc(-c2cnc3c(NC=O)cc(-c4cccc(C(=O)N(C)C)c4)cn23)cc1 | – | 4.92 |
| CC(=O)c1ccc(-c2cnc3c(NC=O)cc(-c4cccc(NS(C)(=O)=O)c4)cn23)cc1 | – | 4.89 |
| COc1cccc(Nc2nc3ccccc3n3cnnc23)c1 | > 79 µM (inactive) | – |

| SMILES | IC50 | pIC50 |
| --- | --- | --- |
| O=C(NCC(=O)N(Cc1ccccc1)C(C(=O)NC1CCCCC1)c1ccco1)c1ccco1 (centres undefined) | > 79 µM (inactive) | – |
| Cn1c(=O)c2[nH]c(NN=Cc3cccc(Br)c3)nc2n(C)c1=O | > 79 µM (inactive) | – |
| COc1cc(-c2cc(C(=O)NCc3ccco3)c3ccccc3n2)cc(OC)c1OC | 23.5 µM (inactive) | – |
| COc1cc(C(=O)N/N=C/c2ccc(OC(=O)c3cccc(C)c3)c(OC)c2)ccc1O | 31.2 µM (inactive) | – |
| COc1cc(Nc2nc3ccccc3n3nnnc23)cc(OC)c1OC | > 79 µM (inactive) | – |
| Cc1nc(N2CCN(c3ccccn3)CC2)c2c(C)c(C(=O)Nc3ccc(F)cc3)sc2n1 | > 79 µM (inactive) | – |
| COc1cccc(CN(C)C(=O)C(Cc2ccccc2)NC(=O)c2ccccc2)c1OC (centres undefined) | > 79 µM (inactive) | – |
| O=C(CN(c1ccc2c(c1)OCCO2)S(=O)(=O)c1ccccc1)Nc1ccc2c(c1)OCO2 | > 79 µM (inactive) | – |
| CC(C)(C)OC(=O)N1CCC(NC(=O)c2nc[nH]c2C(=O)NCC(=O)OCc2ccccc2)CC1 | > 79 µM (inactive) | – |
| CCn1c(O)c(/C=N/N=C/c2ccccc2)c2ccc(C3=NNC(=O)CC3)cc21 | > 79 µM (inactive) | – |
| COc1ccc(-c2csc(NC(=O)CCCc3nc4ccccc4c(=O)[nH]3)n2)cc1OC | – | 4.92 |
| CC(=O)Nc1cc(-c2cccc(NS(C)(=O)=O)c2)cn2c(-c3cccc(C(C)=O)c3)cnc12 | – | 4.94 |
| CCOC(=O)c1c2c3c(cccc3n(C)c1=O)C(=O)c1ccccc1-2 | > 79 µM (inactive) | – |
| NC(=O)c1nsc(C(=O)N(c2ccccc2F)C(C(=O)NCc2ccccc2)c2ccc(O)cc2)c1N (centres undefined) | – | 4.80 |
| CC(=O)Nc1cccc(-c2cc(NC(C)=O)c3ncc(-c4ccccc4)n3c2)c1 | > 79 µM (inactive) | – |
| CC1Nc2ncnc(N3CCN(c4ccccc4)CC3)c2N(Cc2ccc(Cl)cc2)C1=O (centres undefined) | > 79 µM (inactive) | – |
| CC12C=CC(=O)CC1CCC1C2CCC2(C)C(O)C(O)CC12 (centres undefined) | > 79 µM (inactive) | – |
| CCN(CC)C(=O)c1[nH]cnc1C(=O)NCC(=O)OCc1ccccc1 | > 79 µM (inactive) | – |
| COc1cc(-c2cc(C(=O)OCC(=O)NC3CC3)c3ccccc3n2)cc(OC)c1OC | – | 4.90 |
| COc1ccc(-c2cc3nc(-c4ccccc4)cc(N4CCN(C(C)=O)CC4)n3n2)cc1 | – | 5.80 |

— PubChem BioAssay AID602215 (Sanford-Burnham Center for Chemical Genomics, 2012)
